Source: patent US20200246308A1, “SYNERGISTIC COMBINATIONS OF UROLITHINS A AND B FOR IMPROVING COGNITIVE CAPACITY OR COGNITIVE FUNCTION” (Natreon, Inc., priority 2018, published 2020)

Experiments:
[1] = tested on: scopolamine induced amnesic rat model; experiment: Y-maze test, scopolamine induced amnesic rat model (Example 9A); format: in vivo, Male Wistar rats; conditions: scopolamine 1 mg/kg i.p.; for Curiosity behavior (total arm entries), trial-1 and trial-2 / Spatial recognition memory (known vs novel arm entries %), trial-2: p.o. 7 days: B 50, A 50, B:A 10:50 and 50:50 mg/kg; for Curiosity behavior (total arm entries), trial-1 and trial-2: Shilajit 25 mg/kg b.i.d; for Coping behavior to novel environment (% time in novel arm), trial-2: p.o. 7 days: B 50, A 50, B:A 10:50 and 50:50, Shilajit 50 mg/kg
Protocol: The experiment was conducted in accordance with the Principles of laboratory animal care. Male Wistar rats (200-250 g) were purchased from the Central Animal House, Institute of Medical Sciences, Banaras Hindu University (BHU), Varanasi, India. Experiments on animals were approved by the Institutional Animal Ethics Committee of BHU, Varanasi, India. The animals were housed in polypropylene cages under controlled environmental conditions of temperature of 25±1° C. and 45-55% relative humidity and a 12:12 h light/dark cycle. The experimental animals had free access to commercial rat feed and water ad libitum during the experiment. Animals were acclimatized for at least one week before using them for experiments and exposed only once to the experiment.
Rats were randomly allocated into eight study groups containing six in each group (n=6), as follows:
Drug solution was freshly prepared in 0.3% CMC and administered by oral gavage once a day, for a period of 7 days. Briefly, the whole experiment was conducted for 8 days. Scopolamine (1 mg/kg), a muscarinic receptor antagonist, was dissolved in normal saline (0.9% NaCl) and administered intraperitoneally 1 h after drugs administration on seventh day.
Assessment of short term memory by Y maze test paradigm. The Y-maze test was performed essentially to assess spatial recognition memory, general exploratory behavior and anxiety-like behavior by following the standard protocol (Dellu, F., Mayo, W., Cherkaoui, J., Le Moal, M., Simon, H., “A two-trial memory task with automated recording: study in young and aged rats,” Brain Res. (1992) 588: 132-139). The Y-maze apparatus consists of three identical arms (50 cm long, 16 cm wide and 32 cm high) at 120° angles to each other, radiating out from a central point. Visual cues made from colored construction paper and laboratory glassware were placed around the perimeter of the maze and above the top of the black plexiglass sides and these cues were not repeated for each test to maintain novelty to the animals. The novel arm of the Y-maze was blocked and rats were allowed to visit the other two arms of the maze for 15 min. Four hours after the first phase, animals had free access to all three arms for 5 min. The number of entries in each arm was recorded for a 5-min period. The dependent variables such as the total number of entries in all arms (for the 5 min of trial 1 and 2), the % entries in known and novel arms for the 5 min period of trial 2 and the percentage of ratio of time spent in novel arm to time spent in all the arms and in the center of the apparatus during trial 2 were measured. The total number of entries in all arms (for the 5 min of trial 1 and 2) is indicative of general exploration attitude (curiosity) and the % entries in known versus novel arm for the 5 min period of trial 2 is considered as a measure of arm discrimination (spatial recognition memory). Coping strategy or behavior to novel environment was estimated by the percentage of time spent in novel arm to time spent in all arms and in the center of the apparatus during trial 2. The decrease in the coping behavior to novel environment was considered as increase in anxiety-like behavior. An arm entry was counted when the head and two front paws were inside the arm, and duration of an arm visit was ended when the head and two front paws were outside the arm again.

[2] = molecular target: T1, recombinant human Acetylcholinesterase-induced β-Amyloid (Aβ40) Aggregation (Homo sapiens, UniProt P22303); experiment: Inhibition of human recombinant AChE-induced β-amyloid peptide aggregation, ThT method; format: biochemical; conditions: test compounds 50 μM, B:A in μM, 48 h
T1 construct: purchased Sigma Aldrich
T1 sequence (P22303 32-614): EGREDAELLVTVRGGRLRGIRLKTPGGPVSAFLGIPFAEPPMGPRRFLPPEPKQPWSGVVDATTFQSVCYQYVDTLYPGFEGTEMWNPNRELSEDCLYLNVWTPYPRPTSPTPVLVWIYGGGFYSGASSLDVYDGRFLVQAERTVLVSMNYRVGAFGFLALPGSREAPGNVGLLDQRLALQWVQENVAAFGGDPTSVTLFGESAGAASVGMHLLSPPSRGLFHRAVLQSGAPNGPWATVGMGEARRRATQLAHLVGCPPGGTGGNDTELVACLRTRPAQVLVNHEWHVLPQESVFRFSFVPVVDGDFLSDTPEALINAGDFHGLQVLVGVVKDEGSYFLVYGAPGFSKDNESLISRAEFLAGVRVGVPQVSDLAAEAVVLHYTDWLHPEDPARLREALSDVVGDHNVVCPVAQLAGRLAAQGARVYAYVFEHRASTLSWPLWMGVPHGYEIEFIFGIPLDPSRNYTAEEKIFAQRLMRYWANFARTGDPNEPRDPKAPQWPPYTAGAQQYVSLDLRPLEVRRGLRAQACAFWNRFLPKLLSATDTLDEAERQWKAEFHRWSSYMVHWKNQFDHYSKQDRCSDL
Protocol: (§1) The Aβ1-40 (10 μM and 30 μM) was incubated alone and independently with different concentrations of test compounds in the ratios shown in Tables 6 and 7, respectively.
(§2) 2 μL of different concentrations of Aβ40 (10 and 30 μM) was incubated with 16 μL of AChE in the presence of different ratio of test compounds to obtain final concentrations of 30 or 10 μM Aβ40, […], 10, 20, 50 μM test compounds and 2 μL assay buffer ([…]). The mixture was incubated at room temperature for 24 or 48 hr in dark (Time period may be changed according to experiment).
(§3) Fluorescence intensities were obtained for Aβ40 aggregation in the presence of inhibitors, in the absence of inhibitors and the blanks or solvent control. After incubation, 178 μL of 20 μM ThT was added.
(§4) The percentage inhibition of the AChE-induced Aβ1-40 aggregation was calculated as follows.
(§5) Chemical reagents and starting materials were employed as above.

[3] = molecular target: T2, Rat Acetylcholinesterase-induced β-Amyloid (Aβ1-40) Aggregation (Rattus norvegicus, UniProt P37136); experiment: Inhibition of AChE-induced β-amyloid peptide aggregation, ThT method; format: biochemical; conditions: test compounds 50 μM, B:A in μM, ThT fluorescence, 48 h
T2 sequence (P37136 32-614): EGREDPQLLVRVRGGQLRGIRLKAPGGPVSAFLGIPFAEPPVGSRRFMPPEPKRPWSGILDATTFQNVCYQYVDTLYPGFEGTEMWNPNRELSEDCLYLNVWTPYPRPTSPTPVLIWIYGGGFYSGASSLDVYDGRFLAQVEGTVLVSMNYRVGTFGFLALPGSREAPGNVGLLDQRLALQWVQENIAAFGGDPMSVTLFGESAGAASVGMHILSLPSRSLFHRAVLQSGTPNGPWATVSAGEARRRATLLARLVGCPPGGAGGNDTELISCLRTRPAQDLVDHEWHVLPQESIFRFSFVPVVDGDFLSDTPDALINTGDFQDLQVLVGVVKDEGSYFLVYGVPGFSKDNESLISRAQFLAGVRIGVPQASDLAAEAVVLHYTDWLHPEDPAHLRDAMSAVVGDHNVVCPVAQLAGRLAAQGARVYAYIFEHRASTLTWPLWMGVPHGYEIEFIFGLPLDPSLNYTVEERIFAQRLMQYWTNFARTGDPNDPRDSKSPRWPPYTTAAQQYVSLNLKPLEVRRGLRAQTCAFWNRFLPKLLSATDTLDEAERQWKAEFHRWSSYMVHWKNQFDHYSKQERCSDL
Protocol: as §5
The effect of 3-OH-DBP (Urolithin B: B) and 3,8-(OH)2-DBP (Urolithin A: A) on the aggregation propensity of Aβ1-40 and (Thiofavin-T) ThT assay measurements were performed. […] Therefore, ThT assay was performed to study the effect of 3-(OH)-DBP (B) and 3,8-(OH)2-DBP (A) on the fibrillization of Aβ1-40.
as §1, §2, §3, §4
Preparation of Aβ40Stock: Aβ40 peptide (0.25 mg) (Calbiochem, Merck) was dissolved in hexafluoro-2-propanol (HFIP, 0.2 mL) and incubated at room temperature for 1 h. HFIP was then removed by the flow of nitrogen and further dried under vacuum. The concentration of Aβ40 peptide was determined by UV-vis spectrometry (Biotek USA; Plate reader) using a molar extinction coefficient of 1450 cm^−1 M^−1 at 276 nm. HFIP-treated A1340 was then dissolved in 10 mM PBS buffer to a concentration of […] at pH 7.4. The assay was performed in triplicate and in three independent runs.

## O=c1oc2cc(O)ccc2c2ccc(O)cc12 [Urolithin A, 3,8-dihydroxy-dibenzo-alpha-pyrone]
[1]
  Curiosity behavior (total arm entries), trial-1 and trial-2: attenuated the scopolamine induced decrease in curiosity behavior
  Spatial recognition memory (known vs novel arm entries %), trial-2: significantly reversed the scopolamine induced failed the discrimination behavior but not similar as to the vehicle group
  Coping behavior to novel environment (% time in novel arm), trial-2: attenuated the scopolamine-induced decrease in coping strategy to a novel environment but not similar to that vehicle group
[2]; Aβ40 30 μM
  inhibition of Aβ40 aggregation: ~30%
[2]; amyloid beta 10 μM
  inhibition of Aβ40 aggregation: ~34%
[3]; Aβ40 30 μM
  inhibition of Aβ40 aggregation: ~32%
[3]; amyloid beta 10 μM
  inhibition of Aβ40 aggregation: ~35%

## O=c1oc2cc(O)ccc2c2ccccc12 [Urolithin B, 3-hydroxy-dibenzo-alpha-pyrone]
[1]
  Curiosity behavior (total arm entries), trial-1 and trial-2: attenuated the scopolamine induced decrease in curiosity behavior
  Spatial recognition memory (known vs novel arm entries %), trial-2: significantly reversed the scopolamine induced failed the discrimination behavior but not similar as to the vehicle group
  Coping behavior to novel environment (% time in novel arm), trial-2: attenuated the scopolamine-induced decrease in coping strategy to a novel environment but not similar to that vehicle group
[2]; Aβ40 30 μM
  inhibition of Aβ40 aggregation: ~43%
[2]; amyloid beta 10 μM
  inhibition of Aβ40 aggregation: ~46%
[3]; Aβ40 30 μM
  inhibition of Aβ40 aggregation: ~41%
[3]; amyloid beta 10 μM
  inhibition of Aβ40 aggregation: ~50%
